Assay results published in the NIST ThermoML archive (doi:10.1016/j.fluid.2016.08.036).

Assay: mn = molality of the nth substance listed, in mol/kg
Details: 87 kPa, Liquid, Vibrating tube method

CCn1cc[n+](C)c1.O=S(=O)([O-])O [1-ethyl-3-methylimidazolium hydrogen sulfate] + O
mass density [kg/m3]
Details	m1 = 0.0363	m1 = 0.0687	m1 = 0.1026	m1 = 0.1384	m1 = 0.1716	m1 = 0.2049	m1 = 0.2391	m1 = 0.2718	m1 = 0.3034	m1 = 0.3375
293.15 K	1000.86	1003.08	1005.3	1007.57	1009.63	1011.67	1013.72	1015.68	1017.53	1019.54
298.15 K	999.65	1001.82	1003.99	1006.22	1008.23	1010.23	1012.24	1014.17	1016	1017.98
303.15 K	998.2	1000.33	1002.46	1004.64	1006.63	1008.6	1010.58	1012.47	1014.26	1016.21
308.15 K	996.54	998.63	1000.73	1002.87	1004.82	1006.76	1008.7	1010.58	1012.34	1014.25
313.15 K	994.68	996.73	998.8	1000.91	1002.83	1004.74	1006.66	1008.5	1010.24	1012.13
